Reference: patent publication US10617692B2, “Pyrrolopyrimidine comprising cyclopentyl substituent” (CENTAURUS BIOPHARMA CO., LTD., priority 2016, dated 2020)

Tests used:
[1] = Plasma protein binding assay (Rapid Equilibrium Dialysis), determination of free moiety; format: in vitro ADME; details: equilibrium dialysis 5 hours in human plasma at 37° C.; compounds II, III, IV at 10 μM, compound I at 1 μM and 10 μM
Method: Protein binding to the tested compounds was determined by equilibrium dialysis using a Rapid Equilibrium Dialysis (RED) Device system. The dialysis was performed for 5 hours in human plasma at 37° C. The compound II, the compound III, and the compound IV were incubated at 10 μM, and the compound I was incubated at 1 μM and 10 μM. The concentrations of the compounds in plasma and a buffer solution after dialysis were determined through LC-MS/MS analysis. The free moiety is defined as a ratio of the concentration in the buffer solution to the concentration in the plasma.

JAK2 kinase = JAK2 kinase (Homo sapiens (Human), UniProt O60674); assay: Assay for enzymatic activity (IC50), HTRF kinase assay; format: biochemical; details: ATP at Km, 120 min at 23° C.
JAK2 kinase, sequence (O60674 whole entry): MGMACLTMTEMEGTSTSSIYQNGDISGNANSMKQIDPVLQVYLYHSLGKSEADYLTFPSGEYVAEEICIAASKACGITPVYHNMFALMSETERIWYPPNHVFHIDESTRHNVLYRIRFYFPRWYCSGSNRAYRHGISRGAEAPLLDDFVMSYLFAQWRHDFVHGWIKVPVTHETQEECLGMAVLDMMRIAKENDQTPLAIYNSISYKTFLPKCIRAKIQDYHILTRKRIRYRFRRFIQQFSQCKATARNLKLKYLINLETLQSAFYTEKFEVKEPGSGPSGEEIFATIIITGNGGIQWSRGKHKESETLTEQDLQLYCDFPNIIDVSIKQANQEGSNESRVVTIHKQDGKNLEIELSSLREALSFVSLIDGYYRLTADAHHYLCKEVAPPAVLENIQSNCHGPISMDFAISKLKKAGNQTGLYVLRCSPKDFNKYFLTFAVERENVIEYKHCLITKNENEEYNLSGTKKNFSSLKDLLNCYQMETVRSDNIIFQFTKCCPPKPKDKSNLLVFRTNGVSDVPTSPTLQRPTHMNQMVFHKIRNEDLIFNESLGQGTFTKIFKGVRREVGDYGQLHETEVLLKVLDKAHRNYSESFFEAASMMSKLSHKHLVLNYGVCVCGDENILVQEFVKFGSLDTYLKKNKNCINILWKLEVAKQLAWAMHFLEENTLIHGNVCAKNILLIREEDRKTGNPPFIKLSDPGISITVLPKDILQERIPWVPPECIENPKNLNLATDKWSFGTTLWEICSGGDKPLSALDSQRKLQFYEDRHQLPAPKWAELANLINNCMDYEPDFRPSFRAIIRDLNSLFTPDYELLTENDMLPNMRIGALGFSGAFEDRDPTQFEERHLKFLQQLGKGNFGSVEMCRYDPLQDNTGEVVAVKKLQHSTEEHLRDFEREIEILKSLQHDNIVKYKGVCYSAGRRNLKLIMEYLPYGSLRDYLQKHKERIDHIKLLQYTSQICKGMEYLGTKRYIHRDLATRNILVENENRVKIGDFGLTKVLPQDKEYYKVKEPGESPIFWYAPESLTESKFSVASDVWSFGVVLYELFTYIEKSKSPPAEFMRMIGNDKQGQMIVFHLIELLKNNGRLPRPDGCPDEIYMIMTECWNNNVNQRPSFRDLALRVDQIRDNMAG
Method: A testing platform for kinase activity of JAK2 was established based on Homogeneous Time-Resolved Fluorescence (HTRF) assay, and the activities of the compounds were tested using the platform. The compounds were subjected to three-fold gradient dilutions with 100% DMSO with a starting concentration of 1 mM (11 dilutions in total). 4 μL of each dilution was added to 96 μL of reaction buffer (50 mM HEPES, pH 7.4, 10 mM MgCl2, 1 mM EGTA, 0.01% Tween-20, 0.005% BAS, 2 mM DTT) and mixed homogeneously. […] The mixture was mixed homogeneously by centrifugation. […] The plate was incubated in the incubator for 1 hr, and then the fluorescence values were read on Envision (available from PerkinElmer). The excitation wavelength was 320 nm, and the emission wavelengths for detection were 665 nm and 620 nm. The enzymatic activity was represented by a ratio of the two readout at the two emission wavelengths. The enzymatic activity for each compound was tested at 11 concentrations, and IC50 values of the compounds were obtained by calculating the data using GraFit6.0 software (Erithacus Software)

[2] = Human liver microsomal stability test, determination of inherent clearance; format: in vitro ADME; details: 37° C.; for half-life at 1 μM: both sexes, 1 μM compound, human liver microsomes 0.4 mg/mL protein, 1.25 mM NADPH, 1 hour, read-out: Human liver microsome T1/2 (converted); for Human inherent CL: calculated from declination slope of compound concentration in human liver microsomes, 1 μM
Method: 1 μM of the tested compound was incubated for 1 hour together with human liver microsomes of mixed genders (0.4 mg/mL protein) in the presence of 1.25 mM NADPH at 37° C. to determine the inherent clearance. The disappearance of the tested compound was monitored by LC-MS/MS at 0, 10, 20, 30, 45, and 60 minute. By using the standard method reported in literatures, the declination slope of the concentration of the compound was used to calculate the inherent clearance of human.

Structure (SMILES) | Unbound moiety (% human plasma) [1] [%] | IC50 (JAK2 kinase) [µM] | half-life at 1 μM [2] [h] | Human inherent CL [2] [mL/min/kg]
N#CCC(C1CCCC1O)n1cc(-c2ncnc3[nH]ccc23)c(N)n1 (stereo not shown) [Compound II, 3-[3-amino-4-(7H-pyrrolo[2,3-d]pyrimidin-4-yl)-1H-pyrazol-1-yl]-3-(2-hydroxylcyclopentyl)propionitrile] | 28.8 | < 0.01 | > 4 | <5.17
N#CCC(C1CCC(=O)C1)n1cc(-c2ncnc3[nH]ccc23)c(N)n1 (stereo not shown) [Compound III, 3-[3-amino-4-(7H-pyrrolo[2,3-d]pyrimidin-4-yl)-1H-pyrazol-1-yl]-3-(3-oxocyclopentyl)propionitrile] | 30.4 | < 0.01 | > 4 | <5.17
N#CCC(C1CCCC1=O)n1cc(-c2ncnc3[nH]ccc23)c(N)n1 (stereo not shown) [Compound IV, 3-[3-amino-4-(7H-pyrrolo[2,3-d]pyrimidin-4-yl)-1H-pyrazol-1-yl]-3-(2-oxocyclopentyl)propionitrile] | 24.3 | < 0.03 | > 4 | <5.17
N#CC[C@H](C1CCCC1)n1cc(-c2ncnc3[nH]ccc23)c(N)n1 [Compound I^a, (3R)-3-[3-amino-4-(7H-pyrrolo[2,3-d]pyrimidin-4-yl)-1H-pyrazol-1-yl]-3-cyclopentylpropionitrile] | – | – | 2.76 | –
